These results are taken from ChEMBL document CHEMBL1201862, “PubChem BioAssay data set” (2004).

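Each compound was tested at five concentrations against cells in 96-well plates for 48 hours. Abbreviation: GI50, concentration required for 50% inhibition of growth.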 Calls of active or inactive are those of the source. Rule as the data show it: active = GI50 up to about 1.1 µM and inactive = higher.

Test systems include MDA-N; DLD-1; DMS-273; HOP-18; KM-20L2; M19-MEL; XF498; SNB-78.
Assay in all cases: NCI tumour cell line growth inhibition, 48 h

Turning to `NCCSCCc1ccccc1`, in the assay with MDA-N, the GI50 is > 100 µM (inactive).
As for `COc1cc(C(=O)c2cocc2C(=O)c2ccc3c(c2)OCO3)cc(OC)c1OC`, the GI50 with DLD-1 was 0.867 µM (active); in the assay with DMS-273, 0.729 µM (active); in the assay on HOP-18 it was > 51.1 µM (inactive); with KM-20L2 it was 0.596 µM (active); in the assay on M19-MEL it was 2.96 µM (inactive); in the assay with MDA-N, 0.0468 µM (active). For the same molecule, the GI50 in the assay on XF498 was 1.34 µM (inactive).
`O=[N+]([O-])c1ccc2[nH]c(-c3ccc(Cl)cc3)nc2c1`: the GI50 in the assay on MDA-N is 24 µM (inactive).
Same read-out and setting: with `O=C(O)c1ccccc1C1c2ccccc2Oc2ccccc21` the figure was 58.6 µM (inactive); with `COC(=O)c1cc2c(n1S(=O)(=O)c1ccc(C)cc1)C(=O)C(=O)c1[nH]cc(C(=O)OCc3ccccc3)c1-2`, < 0.01 µM (active); with `CN(C)CCCNc1ncnc2[nH]cnc12`, > 100 µM (inactive).
The same measure, in the same setting: the same measure for `CCCCCCNCCCNc1c2ccccc2nc2cccc([N+](=O)[O-])c12`: 0.0118 µM (active).
For `Cn1c(-c2cccs2)cc(-c2ccccc2)c1-c1cccs1`, in the assay on MDA-N, the GI50 was > 100 µM (inactive).
The same measure, in the same setting: with `NNc1nnc(-c2nnc(NN)o2)o1` the figure was > 10 µM (inactive).
Take `COc1nc2c(OC)cccc2c(OC)c1C=O`: the GI50 in the assay on DMS-273 was > 100 µM (inactive); in the assay with HOP-18, > 100 µM (inactive); in the assay with KM-20L2, > 100 µM (inactive); with M19-MEL, > 100 µM (inactive); in the assay on XF498, 18.8 µM (inactive).
Take `CC(C)(C)CC(C)(C)c1cc2c(O)c(c1)Cc1cc(C(C)(C)CC(C)(C)C)cc(c1O)Cc1cc(C(C)(C)CC(C)(C)C)cc(c1O)Cc1cc(C(C)(C)CC(C)(C)C)cc(c1O)Cc1cc(C(C)(C)CC(C)(C)C)cc(c1O)C2`: the GI50 with DLD-1, in the assay on DMS-273, in the assay on KM-20L2, with M19-MEL, in the assay on SNB-78 and in the assay with XF498 was > 100 µM (inactive) each time.
On to `CCOC(=O)NC(=S)NN(C)C1=NCC(C)(C)S1`, for which the GI50 in the assay with MDA-N was > 100 µM (inactive).
In the case of `CN(C)C=C1C(Cl)=C(C=O)CC(C=O)=C1Cl`, the GI50 is 5.71 µM (inactive) with DLD-1; 11 µM (inactive) in the assay with DMS-273; 13.3 µM (inactive) with HOP-18; 19.5 µM (inactive) with KM-20L2; 11.4 µM (inactive) in the assay on M19-MEL.
With `Cc1ccc(C)c(N2C(=O)C(=O)C(c3nc4ccccc4s3)/C(=N/N)C2=O)c1` (stereo not given), the GI50 in the assay on DLD-1 is > 100 µM (inactive); in the assay with DMS-273, > 100 µM (inactive); with KM-20L2, > 100 µM (inactive); in the assay with M19-MEL, > 20.2 µM (inactive); in the assay on SNB-78, > 100 µM (inactive); with XF498, > 100 µM (inactive).
Turning to `CC1(C)C/C(=N/O)c2c(nc3ccc4ccccc4c3c2-c2ccc(Cl)cc2)C1`, in the assay with MDA-N, the GI50 was 25.1 µM (inactive).
Same read-out and setting: with `O=C1CSC(c2ccc(Cl)cc2)N1c1ccc(-c2ccc(-n3c(-c4ccccc4)nc4ccccc4c3=O)cc2)cc1` (stereo not given) the figure was 32.1 µM (inactive); with `CC(C)=CC(=O)c1[nH]c2ccccc2c1CC(=O)NCCc1c[nH]cn1`, > 100 µM (inactive).
Still for that read-out and setting: with `CC1OC(O[C@@H]2OC=C(C=O)[C@@]3(O)CC[C@H](C)[C@@H]23)C(O)C(O)C1O` (stereo not given in full) the figure was > 100 µM (inactive); with `Cc1ccccc1C(=O)N1CCc2c([nH]c3ccccc23)C1`, 18.9 µM (inactive).
`COC(=O)C12C3C=CC(O3)C1C1C=CC2O1` (stereo not given): the GI50 with DLD-1, in the assay on DMS-273, in the assay on HOP-18, in the assay with KM-20L2, in the assay on M19-MEL and in the assay with XF498 was > 100 µM (inactive) throughout.
In the case of `COC(=O)/C(=N/O)C(C(=O)C=C(C)C)C(=O)C(=O)Nc1nc2ccc([N+](=O)[O-])cc2s1` (stereo not given), the GI50 in the assay on DMS-273 was 45.4 µM (inactive); with KM-20L2 it was 80.2 µM (inactive); in the assay on M19-MEL, > 100 µM (inactive); in the assay with SNB-78, 27.7 µM (inactive); in the assay on XF498 it was 58.7 µM (inactive).
Turning to `COC(=O)c1ccccc1C1CN=NC12Cc1c(ccc3c1CCC3)C2=O` (stereo not given), in the assay on MDA-N, the GI50 is 20.1 µM (inactive).
With `O=c1[nH]c(=O)n(C2OC(CO)C(O)C(O)C2O)cc1F` (stereo not given), the GI50 in the assay with DLD-1, in the assay on HOP-18, in the assay on KM-20L2, with M19-MEL, in the assay with MDA-N and in the assay with SNB-78 was > 100 µM (inactive) each time. Moreover, the GI50 in the assay with XF498 was > 100 µM (inactive).
With `COc1ccc(CCCCNCc2cccc(CNCCCCc3ccc(OC)cc3)c2)cc1`, the GI50 with MDA-N was 2 µM (inactive).
On the same count and under the same terms, with `O=C(O)CC1NC(/C(=C/c2ccccc2)NC(=O)c2ccccc2)OC1=O` (stereo not given) the figure was 30.1 µM (inactive); with `COc1cc2cc(C(=O)N3CC(CCl)c4ccc([N+](C)(C)Cc5ccccc5[N+](=O)[O-])cc43)[nH]c2c(OC)c1OC` (stereo not given), 2.26 µM (inactive).
Still for that read-out and setting: with `COc1ccc2nc3ccc(OC)cc3c([S+]([O-])Cc3ccc([N+](=O)[O-])cc3)c2c1` (stereo not given) the figure was 14.2 µM (inactive); with `CC1CCCC(C(O)CC2CC(=O)NC(=O)C2)C1O` (stereo not given), > 100 µM (inactive); with `O=c1oc2ccccc2cc1-c1nnc(-c2ccccc2)s1`, 2.54 µM (inactive).
Consider `CN(C)C(=S)/N=c1\ss/c(=N\C(=S)N(C)C)n1-c1cccc(Cl)c1`, for which the GI50 in the assay on DMS-273, in the assay with KM-20L2 and in the assay on SNB-78 was > 100 µM (inactive) in each case.
As to `CC(C)CCC[C@@H](C)[C@H]1CC[C@H]2C3=C[C@H](OS(=O)(=O)O)[C@@]4(O)C[C@@H](O)CC[C@]4(C)[C@@]3(O)CC[C@]12C`, in the assay with MDA-N, the GI50 is > 100 µM (inactive).
Consider `Cn1cc2ccccc2c1-c1nc(F)nc(F)n1`, for which the GI50 in the assay with DLD-1 is > 100 µM (inactive); in the assay on DMS-273, > 100 µM (inactive); in the assay on KM-20L2 it was > 100 µM (inactive); in the assay with M19-MEL it was > 100 µM (inactive); in the assay on SNB-78 it was > 100 µM (inactive); in the assay with XF498 it was 23.9 µM (inactive).
In the case of `CC1CCCN(CC(O)CN2CCCc3ccccc32)C1` (stereo not given), the GI50 in the assay with MDA-N was > 100 µM (inactive).
On the same count and under the same terms, the same measure for `Cn1c(=O)c2c(nc(NCCCCl)n2CC(=O)NCCCCl)n(C)c1=O`: > 100 µM (inactive); for `Cn1c(SCc2ccc(F)cc2)nnc1C12CC3CC(CC(C3)C1)C2`: 38.5 µM (inactive).
Same read-out and setting: with `CC(=O)OCC1OC(n2ncc(=O)[nH]c2=O)C(OC(C)=O)C1OC(C)=O` (stereo not given) the figure was 32.3 µM (inactive).
In the case of `COC(=O)C1=C(C(=O)OC)C(OO)(c2ccccc2)OC1=O` (stereo not given), in the assay on MDA-N, the GI50 was 91.4 µM (inactive).
As to `O=C1Nc2cccc3ncn(c23)C2=C1CCCC2`, the GI50 with DLD-1 is > 100 µM (inactive); in the assay on DMS-273, > 100 µM (inactive); with HOP-18, 4.98 µM (inactive); with KM-20L2 it was > 100 µM (inactive); in the assay with M19-MEL, > 100 µM (inactive); in the assay on SNB-78 it was > 100 µM (inactive).
On to `CC1CCC(O)(C(C)(C(=O)O)c2ccccc2)CC1` (stereo not given), for which the GI50 in the assay with MDA-N is > 100 µM (inactive).
Same read-out and setting: with `Cn1c(=O)n2n(c1=O)C([S+]([O-])c1ccccc1)C2` (stereo not given) the figure was > 100 µM (inactive).
Same read-out and setting: with `CN1CCN(CCCNN)CC1` the figure was > 100 µM (inactive); with `O=C(Nc1sccc1S(=O)(=O)c1ccc(Cl)cc1)C(F)(F)F`, 8.28 µM (inactive).
The same measure, in the same setting: the same measure for `CC(=O)/C(=C/NC(=S)Nc1ccccc1)C(=O)Nc1ccccc1C`: > 100 µM (inactive).
Take `CCOC(=O)c1c(N2CCCC2)[nH]c(=O)c(C(c2ccc(N(C)C)cc2)c2c(O)c(C(=O)OCC)c(N3CCCC3)[nH]c2=O)c1O`: the GI50 in the assay on MDA-N is > 100 µM (inactive).
Same read-out and setting: the same measure for `CC(C)(C)OC(=O)NCCCCC(NC(=O)OCc1ccccc1)C(N)=O` (stereo not given): > 100 µM (inactive).
As to `CCC1(Br)C(=O)NC(=O)N(C2CC(O)C(CO)O2)C1N=[N+]=[N-]` (stereo not given), the GI50 in the assay on DLD-1, with DMS-273, in the assay with KM-20L2, with M19-MEL, in the assay on SNB-78 and with XF498 was > 100 µM (inactive) throughout.
Consider `COc1ccc(C2(O)C(S(=O)(=O)c3ccc(C)cc3)=Cc3ccc(OC)cc32)cc1` (stereo not given), for which, in the assay on MDA-N, the GI50 is > 100 µM (inactive).
Still for that read-out and setting: the same measure for `NC(=O)C(=CNC(=S)Nc1cccc(C(F)(F)F)c1)C(N)=O`: > 100 µM (inactive); for `COc1c2c(cc3c1C1(O)Cc4ccc5c(c4C[N+]1(C)CC3)OCO5)OCO2` (stereo not given): > 100 µM (inactive).
Still for that read-out and setting: the same measure for `OCC1C(OCc2ccccc2)C(OCc2ccccc2)C(OCc2ccccc2)CN1Cc1ccccc1` (stereo not given): 35.4 µM (inactive); for `COc1ccc(/N=N/c2ccc3oc(=O)c(C(=O)Nc4ccc(OC)cc4)cc3c2)cc1`: 25.5 µM (inactive).
For `CC[P+]1(CC)CCCC1`, the GI50 with DLD-1, with DMS-273, in the assay with HOP-18, with KM-20L2, with M19-MEL and with SNB-78 was > 100 µM (inactive) each time. The GI50 in the assay with XF498 was > 100 µM (inactive).
Turning to `CCOC(=O)CCCN`, the GI50 in the assay with MDA-N is > 100 µM (inactive).
For `O=c1[nH]cnc2c(C3OC(CO)C(O)C3O)c[nH]c12` (stereo not given), in the assay with MDA-N, the GI50 was > 100 µM (inactive).
In the case of `COC1CC(O[C@H]2CC[C@@]3(C)C(=CCC4(O)C3CCC35C(=O)OC6(C)O[C@@]43CCC65)C2)OC(C)C1O` (stereo not given in full), the GI50 in the assay with DLD-1, in the assay on DMS-273, in the assay on HOP-18, in the assay on KM-20L2, with M19-MEL and in the assay with SNB-78 was > 100 µM (inactive) each time. In addition, the GI50 in the assay on XF498 was > 100 µM (inactive).
On to `C/N=C(\S)N/N=C/C(C)=N/N/C(S)=N/C`, for which the GI50 in the assay on DMS-273 was > 100 µM (inactive); in the assay with HOP-18, > 100 µM (inactive); in the assay with KM-20L2, 0.631 µM (active); in the assay on M19-MEL it was > 100 µM (inactive); with SNB-78 it was > 100 µM (inactive).
With `[O-][n+]1ccc(NO)c2ccccc21`, the GI50 with MDA-N was 4.72 µM (inactive).
For the molecule `CN(C)c1ccc2cc3ccc(N(C)C)cc3nc2c1` [ACRIDINE ORANGE], the GI50 in the assay on MDA-N is 1.19 µM (inactive).
